In patent US5872107A, “Treatment of urogenital cancer with boron neutron capture therapy” (Emory University, priority 1997, dated 1999):
“Also recorded” adds a separate entry of the source.

Columns and labels:
[1] = Toxicity study: weight change and survival of normal Swiss mice; type: in vivo, Swiss female mice; settings: 30 mg/kg/day i.p.
Protocol: A toxicity study was conducted on 6-week-old Swiss female mice treated with CDU and CFAU at 30 mg/kg/day. The compounds were prepared in sterile DMSO and injected intraperitoneally (0.1 mL). DMSO and water were used as controls, with the same injection volume as that used for the CDU and CFAU solutions. The dosing schedule used was once a day for 6 days, and the mice were weighed biweekly for 28 days. Results shown in Table 3 somewhat correlate with the cytotoxicity assays in vitro.

[2] = test system: human lymphoma (CEM) cells; experiment: Cellular uptake and intracellular phosphorylation, CEM cells; type: cell-based
Excerpt: (§1) Carboranyl-containing nucleosides and oligonucleotides, which are lipophilic and have a high content of boron atoms, are particularly suited for use in BNCT of urogenital tumors. Preferred compounds include 5-carboranyl-2'-deoxyuridine (CDU) and 5-o-carboranyl-1-(2-deoxy-2-fluoro-β-D-arabinofuranosyl)uracil (CFAU). […] The entrapment of this molecule in cells allows for the enhancement of the tumor-to-blood ratio for BNCT. CFAU has increased glycosidic bond stability conferred by the β-fluorine group positioned on the 2'-carbon of the nucleoside.
It has been discovered that boron neutron capture therapy, optionally combined with antisense oligonucleotide therapy, can be used in the treatment of urogenital cancer, and in particular, that of the prostate, bladder, and kidney. Any boron-containing compound that is sufficiently lipophilic to pass through the appropriate urogenital membranes in a quantity high enough to achieve therapy on irradiation with low-energy neutrons can be used. Carboranyl-containing nucleosides and oligonucleotides, which are lipophilic and have a high content of boron atoms, are particularly suited for use in BNCT of urogenital cancer. Preferred compounds include 5-carboranyl-2'-deoxyuridine (CDU) and 5-o-carboranyl-1-(2-deoxy-2-fluoro-β-D-arabinofuranosyl)uracil (CFAU). […] The entrapment of this molecule in cells allows the enhancement of the tumor-to-blood ratio for BNCT. CFAU has increased glycosidic bond stability conferred by the β-fluorine group positioned on the 2'-carbon of the nucleoside.

[3] = Partition coefficient of CDU in octanol:phosphate buffer (pH 7.4); type: physicochemical
Protocol: The partition coefficient (P) of CDU was determined in octanol:phosphate buffer (pH 7.4). The octanol and aqueous phases were equilibrated by shaking together for 1 hour at 20° C. Two milliliters (2 ml) of octanol containing 0.5 mg/ml of CDU were shaken with 4 ml of buffer on a horizontal shaker for 12, hour at 25° C. Tubes were centrifuged to separate the phases and both phases were analyzed by HPLC as described below. The partition coefficient was calculated by dividing the CDU concentration in octanol by the CDU concentration in buffer. Results are reported as log P values.
The average octanol:phosphate buffer, pH 7.4, P value was determined to be 3090.

[4] = test system: xenographed human prostate tumor; experiment: Accumulation of CDU in xenographed human prostate tumor, brain and serum of nude mice; type: in vivo
Excerpt: The development of the immunodeficient athymic nude mouse has permitted the establishment of human tumors in serial transplantation which provides a representative model of the human disease state. This system, which uses the subcutaneous or subrenal capsule assay is particularly useful in assessing new therapeutic strategies in the treatment of human malignancies and ensures the availability of a constant source of non-attenuated fresh human tumor cells.
Any of these systems can be used to evaluate the extent of accumulation of a selected boron-containing compound in a selected urogenital cancer cell line, or the effect of irradiation of the accumulated compound on that cell line. A detailed example of the evaluation of the accumulation of CDU in a xenographed human prostate tumor obtained from nude mice treated intraperitoneally with 5 mg/kg of tritiated CDU (15 μCi/mouse) is provided in Example 5.
To analyze the concentration of ^10 B-containing compounds in urogenital tissue, the tumor is removed from the animal and then lyophylized. The ^10 B-containing compounds are extracted with a methanol/water solution, and then counted using known methods.
Table 1 provides a summary of the accumulation of CDU in a xenographed human prostate tumor on nude mice treated intraperitoneally with 5 mg/kg of tritiated CDU (15 μCu/mouse). […] The compound partitions in a ratio of approximately 2:1 in the prostate versus blood serum.

[5] = test system: primary human peripheral blood mononuclear (PBM) cells; experiment: Cellular uptake and intracellular phosphorylation, PBM cells; type: cell-based
Excerpt: as §1
It has been discovered that boron neutron capture therapy, optionally combined with antisense oligonucleotide therapy, can be used in the treatment of urogenital cancer, and in particular, that of the prostate, bladder, and kidney. Any boron-containing compound that is sufficiently lipophilic to pass through the appropriate urogenital membranes in a quantity high enough to achieve therapy on irradiation with low-energy neutrons can be used. Carboranyl-containing nucleosides and oligonucleotides, which are lipophilic and have a high content of boron atoms, are particularly suited for use in BNCT of urogenital cancer. Preferred compounds include 5-carboranyl-2'-deoxyuridine (CDU) and 5-o-carboranyl-1-(2-deoxy-2-fluoro-β-D-arabinofuranosyl)uracil (CFAU). […]

[6] = Urinary excretion of unchanged CDU and CDU glucuronide; type: in vivo, Sprague-Dawley rats
Protocol: On the morning of the experiment, rats were placed in individual metabolism cages. CDU […]) was administered intravenously in 0.1 ml of DMSO to the rats over a one minute period. Blood samples (0.35 ml) were collected prior to and at […], 2, 3, 4, 5, 6, 7 and 8 hour after CDU administration from the cannula into heparinized polypropylene microcentrifuge tubes. Blood volume was replaced with an equal volume of normal saline. Blood samples were immediately centrifuged at 2000 g for 5 minutes and plasma was separated and frozen at -20° C. until analysis. Urine was collected for 24 hour following CDU administration. Urine volume was measured and samples were frozen at -20° C. until analysis.
For the determination of unchanged CDU in urine, urine samples were diluted 1:50 with distilled deionized water and 100 μl of internal standard (50 μg/ml progesterone) was added and injected onto the HPLC. Concentrations of CDU glucuronide in urine were determined after hydrolyzing the glucuronate with β-glucuronidase as previously described. Glucuronide concentrations were calculated as the difference between CDU concentrations measured after hydrolysis and before hydrolysis with β-glucuronidase.

[7] = brain, 1 hr after CDU, 5 mg/kg tritiated CDU i.p.
[8] = brain, 2 hr after CDU, 5 mg/kg tritiated CDU i.p.
[9] = serum, 1 hr after CDU, 5 mg/kg tritiated CDU i.p.
[10] = serum, 2 hr after CDU, 5 mg/kg tritiated CDU i.p.
[11] = tumor, 2 hr after CDU, 5 mg/kg tritiated CDU i.p.

Question: Which results are given for 5-carboranyl-2'-deoxyuridine [CDU]?
Answer: weight loss after 1 week (in words) ([1]; CFAU and CDU compared): comparable weight loss after 1 week; weight recovery at 4 weeks (in words) ([1]; surviving animals): all the surviving animals recovered their weight loss to control untreated levels; % of weight gained or lost on week 1 ([1]; week 1, once a day for 6 days): -7.4%; % of weight gained or lost on week 2 ([1]; week 2, once a day for 6 days): 0.1%; % of weight gained or lost on week 3 ([1]; week 3, once a day for 6 days): 4.8%; % of weight gained or lost on week 4 ([1]; week 4, once a day for 6 days): 11.2%; survival at week 4, alive/total ([1]; week 4, once a day for 6 days): 5/5; survival at week 4 (%) ([1]; week 4, once a day for 6 days, 40320 min): 100%; intracellular formation of CDU 5'-monophosphate (in words) ([2]; cells not separated (CEM and PBM named)): CDU 5'-monophosphate is formed intracellularly; also recorded: CDU-5'-monophosphate is formed intracellularly; intracellular phosphorylation in CEM cells (in words) ([2]; human lymphoma (CEM) cells): intracellularly phosphorylated; uptake by CEM cells (in words) ([2]; human lymphoma (CEM) cells): taken up; lipophilicity (in words) [3]: highly lipophilic; log P [3]: 3.49; Mean DPM/mg of dry weight, brain, 1 hr [4, 7]: 42.8 DPM/mg of dry weight; pmole/mg of dry weight, brain, 1 hr [4, 7]: 0.32 pmole/mg of dry weight; Mean DPM/mg of dry weight, brain, 2 hr [4, 8]: 23.4 DPM/mg of dry weight; pmole/mg of dry weight, brain, 2 hr [4, 8]: 0.17 pmole/mg of dry weight; accumulation in the prostate cancer cells (in words) ([4]; over brain tissue and serum, 5 mg/kg tritiated CDU i.p.): significantly accumulates in the prostate cancer cells, and preferentially so, over brain tissue and serum; Mean DPM/mg of dry weight, serum, 1 hr [4, 9]: 181.0 DPM/mg of dry weight; pmole/mg of dry weight, serum, 1 hr [4, 9]: 1.33 pmole/mg of dry weight; Mean DPM/mg of dry weight, serum, 2 hr [4, 10]: 111.0 DPM/mg of dry weight; pmole/mg of dry weight, serum, 2 hr [4, 10]: 0.82 pmole/mg of dry weight; pmole/mg of dry weight, tumor, 1 hr ([4]; tumor, 1 hr after CDU, 5 mg/kg tritiated CDU i.p.): 3.60 pmole/mg of dry weight; Mean DPM/mg of dry weight, tumor, 1 hr ([4]; tumor, 1 hr after CDU, 5 mg/kg tritiated CDU i.p. (15 μCi/mouse)): 489.1 DPM/mg of dry weight; Mean DPM/mg of dry weight, tumor, 2 hr [4, 11]: 256.7 DPM/mg of dry weight; pmole/mg of dry weight, tumor, 2 hr [4, 11]: 1.89 pmole/mg of dry weight; intracellular phosphorylation in PBM cells (in words) [5]: intracellularly phosphorylated; uptake by PBM cells (in words) [5]: taken up; unchanged CDU in urine (in words) ([6]; 24 hours following 25 mg/kg i.v.): No unchanged CDU was detected in urine; also recorded: No unchanged CDU was recovered in urine; renal excretion (in words) ([6]; rat): not renally excreted to any significant extent; renal tubular reabsorption (in words) ([6]; rat, inferred from absence of unchanged CDU in urine): virtually complete renal tubular reabsorption; CDU glucuronide in urine (in words) ([6]; urine treated with β-glucuronidase, 25 mg/kg i.v., 25 mg/kg): no trace of CDU glucuronide in urine; also recorded: no glucuronide metabolites were detected in urine samples
